The results in this text go back to US20230109839A1, “THERAPEUTIC AGENT FOR TAUOPATHIES” (SUMITOMO PHARMA CO., LTD., priority 2020, published 2023).

One experiment relates to APP-Tg mouse. The experiment in a line: Evaluation of the cognitive function by novel object recognition test (NORT) in APP-Tg mice (Test 3). It is filed as in vivo. Details: key to Discrimination index: (novel − known search time)/(novel + known search time). To be noted: for improvement of cognitive function (NORT), summary of the above results / improvement of cognitive function (NORT): APP-Tg mice; for improvement of cognitive function (NORT), summary of the above results: alone, with Elacridar or with ABT depending on the compound. The procedure: Test 3: Evaluation of the Cognitive Function by Novel Object Recognition Test (Hereinafter, Also Referred to as “NORT”)
The present test is for evaluating the improvement of cognitive function with the test compounds. When an APP-Tg mouse which is an AD (Alzheimer's disease) model mouse is evaluated by NORT, the memory for a familiar object decreases depending on the time interval between the first trial run (training) and the second trial run (test). For example, if the first trial run is done and 3 hours later the second one is done, there is no difference in the searching times between novel object and known object for the APP-Tg mouse, compared with a healthy mouse. Thus, the APP-Tg mouse suffers from significant amnesia.
The APP-Tg mouse used herein was prepared by constructing an expression cassette linked to human APP751 isoform to which Swedish (K670N/M671L) and Indiana (V717F) mutation were introduced at downstream of mouse Thy-1 promoter, then injecting the expression cassette into a mouse fertilized egg, and transplanting it to a host mouse. The prepared mouse presents with intracerebral AB accumulation and cognitive dysfunction from early on, and thus the mouse can be used for the evaluation of cognitive function. APP-Tg mouse has been also reported in Non-patent literature 6.
To the prepared APP-Tg mouse, the test compound was administered, and then the first trial run was done for the mouse 30 minutes after the intraperitoneal administration or after 10 days of mixed diet administration. The second trial run was done 3 hours after the first trial run, and the searching times between novel object and known object in the second trial were evaluated. The discrimination index was calculated from the searching time for novel object and known object in the second trial run, and the improvement of cognitive function of the test compound was confirmed by comparing the discrimination index with the test compound-unadministered group as an index of the cognitive function. The discrimination index was calculated by the following formula.
Discrimination index={(Searching time for novel object)−(Searching time for known object)}/{(Searching time for novel object)+(Searching time for known object)}
The present test can be also done with a combination with Elacridar (Tokyo Chemical Industry Co., Ltd.). Elacridar can inhibit P-gp and BCRP which are excretion transporters expressed in the blood-brain barrier and thereby Elacridar has the effect of improving the transferability of the test compound to the brain. Eracridal was orally administered to APP-Tg mice at 100 mg/kg 2 hours before the first trial run, and then the test compound was intraperitoneally administered to the mice 30 minutes before the first trial run according to the above method. And, the improvement of cognitive function was evaluated. The significant difference from the vehicle-administered group was determined using the parametric Dunnett multiple comparison test.
And, the present test can be also done with a combination with ABT (1-aminobenzotriazole) (Tokyo Chemical Industry Co., Ltd.). ABT has the effect of improving the blood concentration of the test compound by inhibiting CYP and suppressing metabolism. The test compound and ABT (1 mg/g-food) were administered with food to APP-Tg mice for 10 days, and then the improvement of cognitive function was evaluated according to the above method. The significant difference from the vehicle-administered group was determined using the parametric Dunnett multiple comparison test.

In experiment [1] the test system is intracerebral tau aggregate accumulation. The experiment in a line: Intracerebral tau aggregate accumulation in rTg4510 mice, tau PET with [18F] PM-PBB3, SUVR (Test 5). The format is in vivo, mouse. The source says:
Test 5: Evaluation of Intracerebral Tau Aggregate Accumulation and Cerebral Atrophy Using rTg4510 Mice
This test is a test to evaluate the effects of the compounds on intracerebral tau aggregate accumulation and cerebral atrophy. The rTg4510 mice overexpress the human-type FTDP-17 mutant tau in the forebrain, and month-age-dependent intracerebral tau aggregate accumulation and cerebral atrophy are observed. The rTg4510 mice used herein were produced by mating Tg (tauP301L) 4510 mice (Stock No. 015815) and CaMKII-tTA mice (Stock No. 007004) purchased from The Jackson Laboratory and breeding them.
The test compound was administered as a mixed diet to rTg4510 mice from the age of 4 months, and PET scan and MRI were performed at the ages of 4, 6 and 8 months to quantitatively evaluate the amount of the intracerebral tau aggregate accumulated and cerebral atrophy. The PET scan was performed using MicroPET Focus 220 of Siemens Medical Solutions (0.851 mm thick (intercenter) 95 slices, 19.0 cm axial field of view (FOV), and 7.6 cm intra-section FOV). The administration of radioactive compound [^18F] PM-PBB3 (precursor obtained from Aprinoia) and the PET scan were performed in dimly lit after the mice was treated with 1.5% isoflurane anesthesia to avoid […] of the radioactive compound. The emission scan was performed for 60 minutes immediately after the intravenous administration of [^18F] PM-PBB3 (1 mCi) (3D list mode, energy window: 350-750 keV). Then, the list mode data sorted into 3D synograms were converted into 2D synograms by Fourier-rebinding (frames: 4×1, 8×2 and 8×5 minutes). The dynamic image for 60 minutes after the administration of [^18F] PM-PBB3 was reconstructed by a filter-corrected back projection with a 0.5 mm Hanning filter. Regions of interest (ROI) were set in multiple brain regions using PMOD image analysis software (PMOD Technology) with reference to the MRI templates and the PET reconstructed images. Tau aggregate accumulation was evaluated by calculating SUVR (Standardized uptake value ratio) with the cerebellum as a reference region, based on the added average of dynamic images from 40 minutes to 60 minutes.

Setting [2] is: 4 month old, 3 mg/g-food, with ABT 1 mg/g-food.
Where [3] appears, read: 6 month old, 3 mg/g-food, with ABT 1 mg/g-food.
[4] abbreviates: 8 month old, 3 mg/g-food, with ABT 1 mg/g-food.
Setting [5] is: 4 month old, 5.8 mg/g-food from the age of 4 months.
Setting [6] is: 6 month old, 5.8 mg/g-food from the age of 4 months.
Where [7] appears, read: 8 month old, 5.8 mg/g-food from the age of 4 months.

Entries after “also recorded” stand apart in the source; their conditions may differ.

Turning to `CN(c1ncc2cnn(CC(=O)Nc3ccn4ncnc4c3)c2n1)C1CCCC1` [Example 795, 2-{6-[cyclopentyl(methyl)amino]-1H-pyrazolo[3,4-d]pyrimidin-1-yl}-N-([1,2,4]triazolo[1,5-a]pyridin-7-yl)acetamide], the “improvement of cognitive function (NORT), summary of the above results” value (“improvement … of the above results” below) in the experiment on APP-Tg mouse was “some improvement of cognitive function”. In addition, the “improvement of cognitive function (NORT)” value in the experiment on APP-Tg mouse (test compound and ABT (1 mg/g-food) administered with food for 10 days) is “some improvement of cognitive function”. For the same molecule, the Discrimination index is 0.30 in the experiment with APP-Tg mouse (APP-Tg mouse, dose 0.2 mg/g-food for 10 days, with ABT 1 mg/g-food) and 0.27 with APP-Tg mouse (APP-Tg mouse, dose 2 mg/g-food for 10 days, with ABT 1 mg/g-food). The “SUVR(cerebellum ratio) cerebral neocortex” value in experiment [1] (setting [2]) stood at 1.023 ± 0.009; in experiment [1] (setting [3]), 1.149 ± 0.031; in experiment [1] (setting [4]), 1.268 ± 0.036. Besides, the figures for the “SUVR(cerebellum ratio) hippocampus” value in experiment [1] (setting [2]), in experiment [1] (setting [3]) and in experiment [1] (setting [4]) were 1.134 ± 0.042, 1.308 ± 0.044 and 1.419 ± 0.048, respectively. In addition, the “age-dependent increase in SUVR in the cerebral neocortex and hippocampus (FIG. 5)” value in experiment [1] (mixed diet 3 mg/g-food with ABT 1 mg/g-food) is reported as “tended to be suppressed”. For the same molecule, the “increase in PET tracer accumulation in each brain region with aging (average SUVR images, FIG. 4)” value in experiment [1] (mixed diet 3 mg/g-food with ABT 1 mg/g-food, ages 4, 6 and 8 months) was “suppressed”.
On to `CC1CC=C(c2cnc3cnn(CC(=O)Nc4ccn5ncnc5c4)c3n2)CC1` (stereo not drawn) [Example 577, 2-[6-(4-methylcyclohex-1-en-1-yl)-1H-pyrazolo[3,4-b]pyrazin-1-yl]-N-([1,2,4]triazolo[1,5-a]pyridin-7-yl)acetamide], for which the “improvement of cognitive function (NORT)” value in the experiment on APP-Tg mouse (Elacridar orally 100 mg/kg 2 hours before, test compound intraperitoneally 30 minutes before the first trial run, 100 mg/kg) is given as “some improvement of cognitive function; also recorded: strong improvement of cognitive function”. Also, in the experiment on APP-Tg mouse, the “improvement … of the above results” value was “some improvement of cognitive function”. The Discrimination index is 0.13 in the experiment on APP-Tg mouse (APP-Tg mouse, dose 10 (mg/g i.p.), with Elacridar 100 mg/kg orally 2 hours before first trial run) and 0.21 with APP-Tg mouse (APP-Tg mouse, with Elacridar 100 mg/kg orally 2 hours before first trial run). For the same molecule, the “individuals that did not show any increase in the SUVR from the age of 6 months to the age of 8 months” value in experiment [1] (mixed diet 0.7 mg/g-hood administration group) is 3 out of 5; in experiment [1] (mixed diet 6.6 mg/g-hood administration group), 3 out of 6. In experiment [1] (mixed diet 0.7 and 6.6 mg/g-food), the “accumulation of tau aggregates (suggested from SUVR)” value is reported as “suppressed”.
Consider `CC1CCN(c2ccc(=O)n(CC(=O)Nc3ccc(C#N)cc3)n2)CC1` [Example 1, N-(4-Cyanophenyl)-2-[3-(4-methylpiperidin-1-yl)-6-oxopyridazin-1(6H)-yl]acetamide], for which the “improvement … of the above results” value in the experiment on APP-Tg mouse is “some improvement of cognitive function”. The Discrimination index in the experiment on APP-Tg mouse (APP-Tg mouse, 30 minutes before first trial run) is given as 0.25; in the experiment with APP-Tg mouse (APP-Tg mouse, dose 3 (mg/g i.p.), 30 minutes before first trial run), 0.12; with APP-Tg mouse (APP-Tg mouse, dose 10 (mg/g i.p.), 30 minutes before first trial run) it was 0.22. The “improvement of cognitive function, significant difference from the vehicle-administered group” value with APP-Tg mouse (APP-Tg mouse, intraperitoneal doses of 10 and 30 mg/kg, parametric Dunnett multiple comparison test) was “statistically significant”. Moreover, the “improvement of cognitive function (NORT, discrimination index)” value in the experiment on APP-Tg mouse (APP-Tg mouse, intraperitoneally 3, 10 and 30 mg/kg 30 minutes before the first trial run) is reported as “dose-dependent improvement of cognitive function”. Also, the entries for the “SUVR(cerebellum ratio) cerebral neocortex” value in experiment [1] (setting [5]), in experiment [1] (setting [6]) and in experiment [1] (setting [7]) were 0.986 ± 0.009, 1.098 ± 0.013 and 1.184 ± 0.017, respectively. In addition, the results for the “SUVR(cerebellum ratio) hippocampus” value in experiment [1] (setting [5]), in experiment [1] (setting [6]) and in experiment [1] (setting [7]) were 1.078 ± 0.009, 1.182 ± 0.016 and 1.284 ± 0.024, respectively. The “age-dependent increase in SUVR in the cerebral neocortex and hippocampus (FIG. 3)” value in experiment [1] (diet 5.8 mg/g-food from the age of 4 months) is listed as “statistically significantly suppressed”. Moreover, the “increase in tau PET tracer accumulation in each region with aging (SUVR average images, FIG. 1)” value in experiment [1] (diet 5.8 mg/g-food from the age of 4 months, ages 4, 6 and 8 months, vs non-administration group) is “significantly suppressed”.
